Assay results as given in ChEMBL document CHEMBL4007425, “Drug Repurposing of Histone Deacetylase Inhibitors That Alleviate Neutrophilic Inflammation in Acute Lung Injury and Idiopathic Pulmonary Fibrosis via Inhibiting Leukotriene A4 Hydrolase and Blocking LTB4 Biosynthesis” (J Med Chem, 2017).
Activity calls are given as the source filed them. The rule behind the calls is not given here.

Assays:
[1] = test system: Mus musculus; test: Anti-inflammatory activity in LPS-induced C57BL/6 mouse model of acute lung injury assessed as reduction in lung lesions at 10 to 50 mg/kg, ip pretreated for 1 hr followed LPS challenge measured after 24 hrs by hematoxylin and eosin staining based microscopy; assay type: functional, organism-based
[2] = test system: Mus musculus; test: Anti-inflammatory activity in LPS-induced C57BL/6 mouse model of acute lung injury assessed as reduction in pulmonary edema by measuring lung wet and dry ratio at 10 to 50 mg/kg, ip pretreated for 1 hr followed LPS challenge after 24 hrs; assay type: functional, organism-based
[3] = test system: Mus musculus; test: Anti-inflammatory activity in BLM-induced C57BL/6 mouse model of acute lung neutrophilic inflammation assessed as reduction neutrophil count at 25 mg/kg, ip qd for 7 days post BLM challenge measured on day 7; assay type: functional, organism-based
[4] = test system: Mus musculus; test: Anti-inflammatory activity in LPS-induced C57BL/6 mouse model of acute lung injury assessed as reduction in IL-1beta mRNA level pretreated intraperitoneally for 1 hr followed LPS challenge after 24 hrs by qRT-PCR method; assay type: functional
[5] = test system: Mus musculus; test: Anti-inflammatory activity in LPS-induced C57BL/6 mouse model of acute lung injury assessed as intact alveolar structure at 10 to 50 mg/kg, ip pretreated for 1 hr followed LPS challenge measured after 24 hrs by hematoxylin and eosin staining based microscopy; assay type: functional, organism-based
[6] = test system: Mus musculus; test: Anti-inflammatory activity in BLM-induced C57BL/6 mouse model of acute lung neutrophilic inflammation assessed as LTB4 level at 50 mg/kg, ip qd for 7 days post BLM challenge measured on day 7 (reference value: 139.23 pg/ml); assay type: functional
[7] = test system: Mus musculus; test: Protection against BLM-induced lung fibrosis in C57BL/6 mouse assessed as reduction in deposition of collagen fibers at 25 and 50 mg/kg, ip qd for 7 days post BLM challenge measured on day 7 by Massons trichrome staining based method; assay type: functional, organism-based
[8] = test system: Mus musculus; test: Protection against BLM-induced lung fibrosis in C57BL/6 mouse assessed as TGF-beta1 level at 50 mg/kg, ip qd for 7 days post BLM challenge measured on day 14 by ELISA (reference value: 99.30 pg/ml); assay type: functional
[9] = test system: Mus musculus; test: Anti-inflammatory activity in BLM-induced C57BL/6 mouse model of acute lung injury assessed as reduction in IL-6 level in BALF at 25 and 50 mg/kg, ip qd for 7 days post BLM challenge measured on day 7 by ELISA; assay type: functional, organism-based
[10] = test system: Plasma; test: Plasma concentration in mouse by liquid chromatography mass spectrometry; assay type: ADME, cell-free
[11] = test system: Plasma; test: Plasma concentration in human; assay type: ADME, cell-free
[12] = test system: Mus musculus; test: Anti-inflammatory activity in LPS-induced C57BL/6 mouse model of acute lung injury assessed as reduction in IL-6 level pretreated intraperitoneally for 1 hr followed LPS challenge after 24 hrs by ELISA; assay type: functional
[13] = test system: Mus musculus; test: Anti-inflammatory activity in LPS-induced C57BL/6 mouse model of acute lung injury assessed as reduction in TNFalpha level pretreated intraperitoneally for 1 hr followed LPS challenge after 24 hrs by ELISA; assay type: functional
[14] = test system: Mus musculus; test: Anti-inflammatory activity in BLM-induced C57BL/6 mouse model of acute lung neutrophilic inflammation assessed as MPO activity at 50 mg/kg, ip qd for 7 days post BLM challenge measured on day 7 (reference value: 0.98 U/g); assay type: functional
[15] = test system: Mus musculus; test: Anti-inflammatory activity in LPS-induced C57BL/6 mouse model of acute lung injury assessed as reduction in TNFalpha mRNA level pretreated intraperitoneally for 1 hr followed LPS challenge after 24 hrs by qRT-PCR method; assay type: functional
[16] = test system: Mus musculus; test: Anti-inflammatory activity in LPS-induced C57BL/6 mouse model of acute lung injury assessed as reduction in protein concentration in BALF at 10 to 50 mg/kg, ip pretreated for 1 hr followed LPS challenge measured after 24 hrs; assay type: functional, organism-based
[17] = test system: Mus musculus; test: Anti-inflammatory activity in LPS-induced C57BL/6 mouse model of acute lung injury assessed as reduction in pathological changes at 10 to 50 mg/kg, ip pretreated for 1 hr followed LPS challenge measured after 24 hrs by hematoxylin and eosin staining based microscopy; assay type: functional, organism-based
[18] = test system: Mus musculus; test: Anti-inflammatory activity in LPS-induced C57BL/6 mouse model of acute lung injury assessed as reduction in IL-1beta level pretreated intraperitoneally for 1 hr followed LPS challenge after 24 hrs by ELISA; assay type: functional
[19] = test system: Mus musculus; test: Anti-inflammatory activity in BLM-induced C57BL/6 mouse model of acute lung neutrophilic inflammation assessed as reduction in number of neutrophils in BALF at 25 and 50 mg/kg, ip qd for 7 days post BLM challenge measured on day 7; assay type: functional, organism-based
[20] = test system: Mus musculus; test: Protection against BLM-induced lung fibrosis in C57BL/6 mouse assessed as TGF-beta1 level at 25 and 50 mg/kg, ip qd for 7 days post BLM challenge measured on day 14 by qRT-PCR method; assay type: functional, organism-based
[21] = test system: Mus musculus; test: Anti-inflammatory activity in BLM-induced C57BL/6 mouse model of acute lung neutrophilic inflammation assessed as protein concentration in BALF at 25 mg/kg, ip qd for 7 days post BLM challenge measured on day 7 (reference value: 2.39 mg/ml); assay type: functional
[22] = test system: Mus musculus; test: Anti-inflammatory activity in BLM-induced C57BL/6 mouse model of acute lung injury assessed as reduction in IL-6 level in BALF at 10 and 25 mg/kg, ip qd for 7 days post BLM challenge measured on day 7 by ELISA; assay type: functional, organism-based
[23] = test system: Mus musculus; test: Protection against BLM-induced lung fibrosis in C57BL/6 mouse assessed as reduction in deposition of collagen fibers at 10 and 25 mg/kg, ip qd for 7 days post BLM challenge measured on day 7 by Massons trichrome staining based method; assay type: functional, organism-based
[24] = test system: Mus musculus; test: Anti-inflammatory activity in BLM-induced C57BL/6 mouse model of acute lung neutrophilic inflammation assessed as reduction in total cell number in BALF at 10 and 25 mg/kg, ip qd for 7 days post BLM challenge measured on day 7; assay type: functional, organism-based
[25] = species: Mus musculus; settings: C57BL/6, at 25 mg/kg
Description: Inhibition of LTB4 biosynthesis in LPS-induced C57BL/6 mouse model of acute lung injury BLAF at 25 mg/kg, ip by ELISA

[26] = test system: Mus musculus; test: Anti-inflammatory activity in BLM-induced C57BL/6 mouse model of acute lung injury assessed as reduction in IL-1beta level in BALF at 10 and 25 mg/kg, ip qd for 7 days post BLM challenge measured on day 7 by ELISA; assay type: functional, organism-based
[27] = test system: Mus musculus; test: Protection against BLM-induced lung fibrosis in C57BL/6 mouse assessed as TGF-beta1 level at 25 mg/kg, ip qd for 7 days post BLM challenge measured on day 7 by ELISA (reference value: 75.39 pg/ml); assay type: functional
[28] = test system: Mus musculus; test: Anti-inflammatory activity in BLM-induced C57BL/6 mouse model of acute lung neutrophilic inflammation assessed as MPO activity at 25 mg/kg, ip qd for 7 days post BLM challenge measured on day 7 (reference value: 0.98 U/g); assay type: functional
[29] = test system: Mus musculus; test: Protection against BLM-induced lung fibrosis in C57BL/6 mouse assessed as TGF-beta1 level at 25 mg/kg, ip qd for 7 days post BLM challenge measured on day 14 by ELISA (reference value: 99.30 pg/ml); assay type: functional

Structure (SMILES): O=C(CCCCCCC(=O)Nc1ccccc1)NO [VORINOSTAT]
- Activity [1]: Active
- Activity [2]: Active
- Activity [3]: Active
- Activity [4]: Dose-dependent effect
- Activity [5]: Active
- Activity [6]: 43.19 pg/mL
- Activity [7]: Active
- Activity [8]: 49.74 pg/mL
- Activity [9]: Active
- concentration [10]: 1 to 10 µM
- concentration [11]: 0.01 to 6 µM
- Activity [12]: Dose-dependent effect
- Activity [13]: Dose-dependent effect
- Activity [14]: 0.67 U/g
- Activity [15]: Dose-dependent effect
- Activity [16]: Active
- Activity [17]: Active
- Activity [18]: Dose-dependent effect
- Activity [19]: Active
- Activity [20]: Active

Structure (SMILES): CN(C)c1ccc(C(=O)NCCCCCCC(=O)NO)cc1
- Activity [21]: 1.92 mg/mL
- Activity [22]: Active
- Activity [23]: Active
- Activity [24]: Active
- inhibition [25]: Active
- Activity [26]: Active
- Activity [27]: 31.74 pg/mL
- Activity [28]: 0.56 U/g
- Activity [29]: 38.22 pg/mL
